ChEMBL document CHEMBL2390827, “Ligand-based design, synthesis, and experimental evaluation of novel benzofuroxan derivatives as anti-Trypanosoma cruzi agents” (Eur J Med Chem, 2013)
Calls of active or inactive are those of the source. The calls are words filed in the database; no cut-off is given here.

What was measured:
[1] = Selectivity index, ratio of IC50 for human fibroblasts to GI50 for epimastigote stage of Trypanosoma cruzi Y
[2] = Cytotoxicity against human fibroblasts assessed as growth inhibition after 24 hrs by MTT assay; type: cell-based; conditions: Fibroblast
Trypanosoma cruzi = assay: Antitrypanosomal activity against epimastigote stage of Trypanosoma cruzi Y assessed as parasite growth inhibition after 5 days by spectrophotometric analysis; type: functional

| Compound | log1/GI50 (Trypanosoma cruzi) | GI50 (Trypanosoma cruzi; Trypanosoma cruzi, Y, 120 h) | GI50 (Trypanosoma cruzi) | Selectivity Index [1] | IC50 [2] |
| --- | --- | --- | --- | --- | --- |
| NS(=O)(=O)c1ccc(C(=O)N/N=C/c2ccc3c(c2)no[n+]3[O-])cc1 | 4.22 | 60.4 µM |  | 0.99 | 60 µM |
| CC(=O)c1ccc(C(=O)N/N=C/c2ccc3c(c2)no[n+]3[O-])cc1 | 4.8 | 16 µM |  |  |  |
| O=C(N/N=C/c1ccc2c(c1)no[n+]2[O-])c1ccc([N+](=O)[O-])cc1 | 4.75 | 17.8 µM |  |  |  |
| O=C(N/N=C/c1ccc2c(c1)no[n+]2[O-])c1ccccc1 | 4.77 | 16.9 µM |  |  |  |
| O=C(N/N=C/c1ccc2c(c1)no[n+]2[O-])c1ccc([N+](=O)[O-])c(C(F)(F)F)c1 | 4.8 | 15.9 µM |  |  |  |
| O=C(N/N=C/c1ccc2c(c1)no[n+]2[O-])c1ccc(Cl)cc1Cl | 5.02 | 9.54 µM |  | 4.01 | 38.3 µM |
| CCc1ccc(C(=O)N/N=C/c2ccc3c(c2)no[n+]3[O-])cc1 | 5 | 9.91 µM |  |  |  |
| Cc1ccc(C(=O)N/N=C/c2ccc3c(c2)no[n+]3[O-])cc1 | 4.93 | 11.9 µM |  |  |  |
| CN(C)c1ccc(C(=O)N/N=C/c2ccc3c(c2)no[n+]3[O-])cc1 |  |  | inactive |  |  |
| O=C(N/N=C/c1ccc2c(c1)no[n+]2[O-])c1ccc(F)cc1 | 4.82 | 15.3 µM |  |  |  |
| O=C(Cn1ccnc1[N+](=O)[O-])NCc1ccccc1 [BENZNIDAZOLE] | 4.68 | 22.7 µM |  | >9.6 | > 200 µM |
| N#Cc1ccc(C(=O)N/N=C/c2ccc3c(c2)no[n+]3[O-])cc1 | 4.58 | 26.6 µM |  |  |  |
| O=C(N/N=C/c1ccc2c(c1)no[n+]2[O-])c1ccc(Cl)cc1 | 5 | 9.96 µM |  |  |  |
| CCOc1ccc(C(=O)N/N=C/c2ccc3c(c2)no[n+]3[O-])cc1 | 5.02 | 9.62 µM |  |  |  |
| O=C(N/N=C/c1ccc([N+](=O)[O-])o1)c1ccc(O)cc1 [NIFUROXAZIDE] | 3.92 | 120 µM |  | 0.64 | 77.4 µM |
| COc1ccc(C(=O)N/N=C/c2ccc3c(c2)no[n+]3[O-])cc1 | 4.88 | 13.2 µM |  |  |  |
| O=C(N/N=C/c1ccc2c(c1)no[n+]2[O-])c1ccc(C(F)(F)F)cc1 | 5.02 | 9.62 µM |  |  |  |
| O=C(N/N=C/c1ccc2c(c1)no[n+]2[O-])c1ccc(O)cc1 |  |  | inactive |  |  |
| Nc1ccc(C(=O)N/N=C/c2ccc3c(c2)no[n+]3[O-])cc1 | 3.93 | 117 µM |  | 1.71 | > 200 µM |

The remaining compounds from weak to strong by GI50 (Trypanosoma cruzi; Trypanosoma cruzi, Y, 120 h), led by results:

| log1/GI50 (Trypanosoma cruzi) | GI50 (Trypanosoma cruzi; Trypanosoma cruzi, Y, 120 h) | GI50 (Trypanosoma cruzi) | Compound | Selectivity Index [1] | IC50 [2] |
| --- | --- | --- | --- | --- | --- |
| 5.04 | 9.07 µM |  | O=C(N/N=C/c1ccc2c(c1)no[n+]2[O-])c1ccc(Cl)c(Cl)c1 | 7.17 | 65 µM |
| 5.11 | 7.78 µM |  | O=C(N/N=C/c1ccc2c(c1)no[n+]2[O-])c1ccc(Br)cc1 | >25.71 | > 200 µM |
| 5.15 | 7.12 µM |  | CC(C)c1ccc(C(=O)N/N=C/c2ccc3c(c2)no[n+]3[O-])cc1 | >28.09 | > 200 µM |
| 5.21 | 6.11 µM |  | O=C(N/N=C/c1ccc2c(c1)no[n+]2[O-])c1ccc(I)cc1 | >32.73 | > 200 µM |
| 5.24 | 5.78 µM |  | CCCCOc1ccc(C(=O)N/N=C/c2ccc3c(c2)no[n+]3[O-])cc1 | >34.6 | > 200 µM |
| 5.24 | 5.45 µM |  | CC(C)(C)c1ccc(C(=O)N/N=C/c2ccc3c(c2)no[n+]3[O-])cc1 | >36.7 | > 200 µM |
| 5.39 | 4.07 µM |  | CCCOc1ccc(C(=O)N/N=C/c2ccc3c(c2)no[n+]3[O-])cc1 | >49.14 | > 200 µM |
| 5.42 | 3.78 µM |  | CC1CS(=O)(=O)CCN1/N=C/c1ccc([N+](=O)[O-])o1 (stereo unspecified) [NIFURTIMOX] | >52.91 | > 200 µM |
| 5.43 | 3.72 µM |  | CCCCc1ccc(C(=O)N/N=C/c2ccc3c(c2)no[n+]3[O-])cc1 | >53.76 | > 200 µM |
| 5.52 | 3.04 µM |  | CCCc1ccc(C(=O)N/N=C/c2ccc3c(c2)no[n+]3[O-])cc1 | >65.79 | > 200 µM |
